# Results: US20130190310A1, “MIG6 AND THERAPEUTIC EFFICACY” (THE JOHNS HOPKINS UNIVERSITY, priority 2010, published 2013)
# “Also recorded” adds a separate entry of the source.
# How the values were obtained:
# tumors in Errfil−/− mice = conditions: cited from earlier work
# [1] = system: tumors in control Errfil+/+ mice; conditions: cited from earlier work
# NSCLC = conditions: patients randomized to gefinitib or placebo; cited from earlier work
# SCC-S and SCC-R cells = assay: Cell viability and drug sensitivity assay (Calcein AM), erlotinib-sensitive vs -resistant isogenic cells; format: cell-based, human; conditions: erlotinib 72 hrs, cell viability
# Experimental: Drug resistant cell lines were generated via a process of slowly escalating exposure to erlotinib, as reported previously (16). SCC-S is used to designate the parental UM-SCCI cells exposed to DMSO, and SCC-R refers to the erlotinib resistant clone.
# (§1) Cells were plated at a density of 3000/well in 96-well plates. The following day, cells were treated with 0, 0.01, 0.033, 0.1, 0.33, 1, or 3.3 μM erlotinib for an additional 72 hrs. Cell viability was subsequently assayed using Calcein AM (Invitrogen), Fluorescence signals generated as a result of Calcein AM cleavage by viable cells were read by a Molecular Devices plate reader (Sunnyvale, Calif.) using an excitation frequency of 480 nm, and an emission frequency of 535 nm.
# Mig6 [2] = assay: Immunoblot analysis of Mig6 expression in SCC-R cells; format: cell-based, human; conditions: for expression of Mig6: AKI or U0126 10 or 20 μM, LY294002 10 or 25 μM, rapamycin 1 or 2 μM
# From the text: Antibodies against EGFR, phospho-tyrosine (P-Tyr-100), phospho-EGFR (Tyr1068), phospho-HER2/ErbB2 (Tyr1248), AKT, phospho-AKT (Ser473), p44/42 MAPK, (Erk1/2), phospho-p44/42 MAPK (Erk1/2) (Thr202/Tyr204), and PTEN were obtained from Cell Signaling Technology, Inc. (Beverly, Mass.). Monoclonal anti-P-Actin antibody was obtained from Sigma (St. Louis, Mo.). Polyclonal anti-Mig6 antibody was a generous gift from Dr. Ferby (15). […] Equal amounts of protein were mixed with Laemmli sample buffer, run on 4-12% NuPAGE gels and transferred to nitrocellulose membrane (Bio-Rad Laboratories, Hercules, Calif.). The membrane was probed with primary antibody followed by HRP-conjugated appropriate secondary antibodies (Santa Cruz Biotech, Santa Cruz, Calif.), and detected by enhanced chemiluminescence (ECL, GE Health Care, Piscataway, N.J.).
# EGFR [3] = assay: Immunoblot of EGF-induced EGFR phosphorylation in bladder and lung cancer cell lines; format: cell-based, human; conditions: all bladder and lung cancer cell lines tested; 0.1 μM erlotinib 3 hrs before 10 ng/ml EGF
# Experimental: Antibodies against EGFR, phospho-tyrosine (P-Tyr-100), phospho-EGFR (Tyr1068), phospho-HER2/ErbB2 (Tyr1248), AKT, phospho-AKT (Ser473), p44/42 MAPK, (Erk1/2), phospho-p44/42 MAPK (Erk1/2) (Thr202/Tyr204), and PTEN were obtained from Cell Signaling Technology, Inc. (Beverly, Mass.). Monoclonal anti-P-Actin antibody was obtained from Sigma (St. Louis, Mo.). Polyclonal anti-Mig6 antibody was a generous gift from Dr. Ferby (15). When appropriate, cells were cultured in serum free medium overnight, pretreated with the indicated inhibitors for 3 hrs or […], and the treated with 10 ng/ml EGF for 10 or 30 min. […] The membrane was probed with primary antibody followed by HRP-conjugated appropriate secondary antibodies (Santa Cruz Biotech, Santa Cruz, Calif.), and detected by enhanced chemiluminescence (ECL, GE Health Care, Piscataway, N.J.).
# H358 cells = assay: Cell viability of parental and TGF β-induced H358 cells; format: cell-based, human; conditions: TGF-β-induced mesenchymal-like cells vs parental
# Experimental: as §1
# Mig6 [4] = assay: Immunoblot analysis of Mig6 expression in 358 cells; format: cell-based, human; conditions: 24 hrs
# Experimental: (§2) Antibodies against EGFR, phospho-tyrosine (P-Tyr-100), phospho-EGFR (Tyr1068), phospho-HER2/ErbB2 (Tyr1248), AKT, phospho-AKT (Ser473), p44/42 MAPK, (Erk1/2), phospho-p44/42 MAPK (Erk1/2) (Thr202/Tyr204), and PTEN were obtained from Cell Signaling Technology, Inc. (Beverly, Mass.). Monoclonal anti-P-Actin antibody was obtained from Sigma (St. Louis, Mo.). Polyclonal anti-Mig6 antibody was a generous gift from Dr. Ferby (15). When appropriate, cells were cultured in serum free medium overnight, pretreated with the indicated inhibitors for 3 hrs or […], and the treated with 10 ng/ml EGF for 10 or 30 min. Equal amounts of protein were mixed with Laemmli sample buffer, run on 4-12% NuPAGE gels and transferred to nitrocellulose membrane (Bio-Rad Laboratories, Hercules, Calif.). The membrane was probed with primary antibody followed by HRP-conjugated appropriate secondary antibodies (Santa Cruz Biotech, Santa Cruz, Calif.), and detected by enhanced chemiluminescence (ECL, GE Health Care, Piscataway, N.J.).
# Mig6 [5] = assay: Immunoblot analysis of Mig6 expression in 358/TGFβ1-day 21 and 358/TGFβ3-day 21 cells; format: cell-based, human; conditions: 24 hrs
# Experimental: as §2
# BML-5 = assay: Erlotinib treatment of directly xenografted lung tumors; format: in vivo, nude mice; conditions: BML-5 compared with BML-1, BML-7, BML-11
# Experimental: (§3) The xenografts were generated and erlotinib treatment was performed as published previously (17, 18). Relative tumor growth inhibition (TGI) was calculated as the relative tumor growth of treated mice divided by relative tumor growth of control mice (T/C). The animals were maintained in accordance to guidelines of the American Association of Laboratory Animal Care and the research protocol was approved by the Johns Hopkins University Animal Use and Care Committee.
# PANC410 = assay: Erlotinib treatment of directly xenografted pancreatic tumors; format: in vivo, nude mice
# Experimental: as §3
# PANC420 = assay: as above; format: in vivo, nude mice
# Experimental: as §3
# PANC140 = assay: as above; format: in vivo, nude mice
# Experimental: as §3
# PANC294 = assay: as above; format: in vivo, nude mice
# Experimental: as §3
# PANC215 = assay: as above; format: in vivo, nude mice
# Experimental: The xenografts were generated and erlotinib treatment was performed as published previously (17, 18). Relative tumor growth inhibition (TGI) was calculated as the relative tumor growth of treated mice divided by relative tumor growth of control mice (T/C).
# [6] = 150 mg per day; cited from earlier work
# serum proteins = conditions: cited from earlier work
# EGFR [7] = assay: Immunoblot/densitometric analysis of phospho-EGFR/total EGFR in SCC-R cells; format: cell-based, human; conditions: inhibitor 24 hrs (25 μM LY294002, 20 μM AKI, 2 μM rapamycin, 20 μM U0126), then 10 ng/ml EGF 30 min
# Experimental: as §2
smiles,measurement,setting,value
COc1cc2ncnc(Nc3ccc(F)c(Cl)c3)c2cc1OCCCN1CCOCC1 [gefitinib],sensitivity of carcinogen-induced tumors to gefitinib,tumors in Errfil−/− mice; Errfil−/− mice,unusually sensitive
same,tumor regression,tumors in Errfil−/− mice; in 1 week following initiation of gefitinib treatment,more than 50%
same,tumor response to gefitinib,[1],did not respond
same,overall difference of PFS vs placebo,NSCLC,7 days
C#Cc1cccc(Nc2ncnc3cc(OCCOC)c(OCCOC)cc23)c1 [erlotinib],IC50 of SCC-R cells relative to SCC-S cells,SCC-S and SCC-R cells,> 10 times
same,basal Mig6 expression,"Mig6 [2]; 0.2 or 1 μM erlotinib, 24 hrs",only a slight decrease
same,EGF-induced Mig6 upregulation,Mig6 [2]; erlotinib pretreatment 30 min then 10 ng/ml EGF 24 hrs,completely abolish
same,ligand-induced EGFR phosphorylation,EGFR [3],effectively block
same,"resistance to erlotinib, cell viability",H358 cells,acquired increasing resistance
same,expression of Mig6,Mig6 [4],reduced
same,expression of Mig6,Mig6 [5],failed to suppress
same,response of lung xenograft to erlotinib (tumor growth),BML-5,sensitive; also recorded: better response
same,erlotinib responsiveness of xenografted pancreatic tumor,PANC410,erlotinib-sensitive
same,erlotinib responsiveness of xenografted pancreatic tumor,PANC420,erlotinib-resistant
same,erlotinib responsiveness of xenografted pancreatic tumor,PANC140,erlotinib-resistant
same,erlotinib responsiveness of xenografted pancreatic tumor,PANC294,erlotinib-resistant
same,erlotinib responsiveness of xenografted pancreatic tumor,PANC215,erlotinib-resistant
same,"steady-state serum concentration, median",[6],2.9 µM
same,bound to serum proteins,serum proteins,90%
N#CC(=C(/N)Sc1ccccc1N)/C(C#N)=C(\N)Sc1ccccc1N [U0126],expression of Mig6,Mig6 [2]; 24 hrs,decreased
same,ratio of phospho-EGFR to EGFR,EGFR [7],increased
same,expression of Mig6,Mig6 [4],reduced
O=c1[nH]c2ccccc2n1C1CCN(Cc2ccc(-c3nc4cc5[nH]cnc5cc4nc3-c3ccccc3)cc2)CC1 [AKI],expression of Mig6,Mig6 [2]; 24 hrs,decreased
same,ratio of phospho-EGFR to EGFR,EGFR [7],increased
